Laboratory results published in patent US10988477B2 (Merck Patent GmbH, priority 2018, dated 2021).
pIC50, pKi: −log10 of the molar value. Structures can show the parent of a compound that is named as a salt.

Legend:
[1] = biological target: intracellular GCN2 (phosphorylation of the GCN2 substrate eIF2α) (Homo sapiens, UniProt Q9P2K8); test: GCN2 cellular inhibition assay (AlphaScreen SureFire P-eIF2α Ser51, borrelidin-treated U2OS cells); assay type: cell-based; settings: compounds of Formula II; biomarker assay, phosphorylated eIF2α Ser51 in borrelidin-treated U2OS cells
Summary of the method: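 U2OS cells adhered overnight, then treated with compounds (4-fold serial dilutions from 40 μM final) plus borrelidin 10 μM final for 1 h at 37 °C. Lysate eIF2α Ser51 phosphorylation measured by AlphaScreen SureFire. Percent inhibition calculated relative to borrelidin-only wells.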

GCN2 kinase = GCN2 kinase (Homo sapiens, UniProt Q9P2K8); test: GCN2 enzyme inhibition assay (Transcreener ADP2 fluorescence polarization); assay type: biochemical; settings: compounds of Formula II; 280 μM ATP, 4 nM GCN2 kinase
Summary of the method: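 4 nM GCN2 + 200 μM (RS)7 + compound (0–8 μM), 10 min preinc.; start with ATP (280 μM final); 1 h, 25 °C; pH 7.5 Tris/NaCl/MgCl2/DTT; ADP FP readout; IC50, Ki(app) via tight-binding fit.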

Sequence of intracellular GCN2 (phosphorylation of the GCN2 substrate eIF2α) (Q9P2K8 whole entry): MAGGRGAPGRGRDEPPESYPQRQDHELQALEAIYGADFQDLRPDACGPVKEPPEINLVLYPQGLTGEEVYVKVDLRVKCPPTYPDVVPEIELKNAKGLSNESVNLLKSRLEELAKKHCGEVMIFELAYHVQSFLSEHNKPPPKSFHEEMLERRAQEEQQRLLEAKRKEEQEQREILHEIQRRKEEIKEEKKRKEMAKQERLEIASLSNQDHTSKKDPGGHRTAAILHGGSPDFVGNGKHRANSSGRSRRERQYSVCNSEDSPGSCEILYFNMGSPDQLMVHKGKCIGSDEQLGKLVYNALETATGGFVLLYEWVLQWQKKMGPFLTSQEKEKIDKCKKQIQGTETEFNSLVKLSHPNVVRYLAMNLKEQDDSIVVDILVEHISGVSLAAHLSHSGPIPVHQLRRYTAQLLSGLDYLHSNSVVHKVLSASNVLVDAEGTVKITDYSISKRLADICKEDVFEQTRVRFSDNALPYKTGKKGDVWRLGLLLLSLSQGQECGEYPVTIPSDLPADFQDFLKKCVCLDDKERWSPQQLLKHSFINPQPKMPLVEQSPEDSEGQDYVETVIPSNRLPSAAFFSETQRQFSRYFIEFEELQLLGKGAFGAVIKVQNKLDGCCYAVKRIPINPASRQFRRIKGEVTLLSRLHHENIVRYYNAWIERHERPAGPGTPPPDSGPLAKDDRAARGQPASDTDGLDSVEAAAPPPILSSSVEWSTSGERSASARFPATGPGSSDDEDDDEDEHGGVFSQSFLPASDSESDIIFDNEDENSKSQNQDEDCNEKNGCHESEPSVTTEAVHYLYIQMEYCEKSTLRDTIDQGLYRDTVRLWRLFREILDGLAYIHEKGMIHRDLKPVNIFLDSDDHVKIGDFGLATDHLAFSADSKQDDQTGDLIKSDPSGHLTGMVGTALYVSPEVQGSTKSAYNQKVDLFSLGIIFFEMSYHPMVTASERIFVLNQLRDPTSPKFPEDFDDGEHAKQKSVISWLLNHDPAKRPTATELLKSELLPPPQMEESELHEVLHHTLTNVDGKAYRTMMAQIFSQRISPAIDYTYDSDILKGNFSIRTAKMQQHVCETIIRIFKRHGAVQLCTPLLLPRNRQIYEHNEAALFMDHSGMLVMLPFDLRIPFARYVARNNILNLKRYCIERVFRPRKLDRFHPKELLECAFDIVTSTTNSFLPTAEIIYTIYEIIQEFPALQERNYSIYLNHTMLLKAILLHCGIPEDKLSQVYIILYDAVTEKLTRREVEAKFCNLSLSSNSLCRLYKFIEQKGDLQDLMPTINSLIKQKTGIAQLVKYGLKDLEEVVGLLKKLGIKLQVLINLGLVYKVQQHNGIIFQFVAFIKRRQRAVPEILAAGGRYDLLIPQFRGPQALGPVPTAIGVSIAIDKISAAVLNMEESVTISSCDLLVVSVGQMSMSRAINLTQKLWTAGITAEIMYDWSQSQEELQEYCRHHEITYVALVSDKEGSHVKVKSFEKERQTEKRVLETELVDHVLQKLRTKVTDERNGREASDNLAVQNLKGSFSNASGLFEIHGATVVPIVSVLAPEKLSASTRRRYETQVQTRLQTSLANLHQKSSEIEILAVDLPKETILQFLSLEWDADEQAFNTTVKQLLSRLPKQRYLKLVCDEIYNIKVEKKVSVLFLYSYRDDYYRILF
Sequence of GCN2 kinase (Q9P2K8 whole entry): as above

pIC50 [1]	pKi (GCN2 kinase)	SMILES
< 5.30	6.00 to 8.00	C[C@@H]1COCCN1c1cc(-c2cnc3ccc(C(F)F)nn23)ncn1 [II-324, (R)-4-(6-(6-(Difluoromethyl)imidazo[1,2-b]pyridazin-3-yl)pyrimidin-4-yl)-3-methylmorpholine]
5.30 to 6.30	6.00 to 8.00	C[C@H]1COCCN1c1cc(-c2cnc3ccc(C(F)F)nn23)ncn1 [II-325, (S)-4-(6-(6-(Difluoromethyl)imidazo[1,2-b]pyridazin-3-yl)pyrimidin-4-yl)-3-methylmorpholine]
< 5.30	6.00 to 8.00	FC(F)c1ccc2ncc(-c3cc(N4CCOC(Cn5cncn5)C4)ncn3)n2n1 (stereo not drawn) [II-326, 2-((1H-1,2,4-Triazol-1-yl)methyl)-4-(6-(6-(difluoromethyl)imidazo[1,2-b]pyridazin-3-yl)pyrimidin-4-yl)morpholine]
< 5.30	6.00 to 8.00	FC(F)c1ccc2ncc(-c3cc(N4CCCC(Cn5ccnn5)C4)ncn3)n2n1 (stereo not drawn) [II-327, 3-(6-(3-((1H-1,2,3-Triazol-1-yl)methyl)piperidin-1-yl)pyrimidin-4-yl)-6-(difluoromethyl)imidazo[1,2-b]pyridazine]
5.30 to 6.30	6.00 to 8.00	Cc1ccc2ncc(-c3cc(N4CCO[C@H](CNS(C)(=O)=O)C4)ncn3)n2n1 [II-328, (S)—N-((4-(6-(6-Methylimidazo[1,2-b]pyridazin-3-yl)pyrimidin-4-yl)morpholin-2-yl)methyl)methanesulfonamide]
> 6.30	> 8.00	CC1C(CNS(C)(=O)=O)CC(F)(F)CN1c1cc(-c2cnc3ccc(C(F)F)nn23)ncn1 (stereo not drawn) [II-329, N-((1-(6-(6-(Difluoromethyl)imidazo[1,2-b]pyridazin-3-yl)pyrimidin-4-yl)-5,5-difluoro-2-methylpiperidin-3-yl)methyl)methanesulfonamide]
5.30 to 6.30	6.00 to 8.00	CS(=O)(=O)NC[C@H]1CN(c2cc(-c3cnc4ccc(C(F)F)nn34)ncn2)C[C@H](C(F)(F)F)O1 [II-330, N-(((2R,6R)-4-(6-(6-(Difluoromethyl)imidazo[1,2-b]pyridazin-3-yl)pyrimidin-4-yl)-6-(trifluoromethyl)morpholin-2-yl)methyl)methanesulfonamide]
> 6.30	> 8.00	CS(=O)(=O)NC[C@@H]1CN(c2cc(-c3cnc4ccc(C(F)F)nn34)ncn2)C[C@H](C(F)(F)F)O1 [II-331, N-(((2S,6R)-4-(6-(6-(Difluoromethyl)imidazo[1,2-b]pyridazin-3-yl)pyrimidin-4-yl)-6-(trifluoromethyl)morpholin-2-yl)methyl)methanesulfonamide]
< 5.30	6.00 to 8.00	NS(=O)(=O)N1CC2OCCN(c3cc(-c4cnc5ccc(C(F)F)nn45)ncn3)C2C1 (stereo not drawn) [II-332, 4-(6-(6-(Difluoromethyl)imidazo[1,2-b]pyridazin-3-yl)pyrimidin-4-yl)hexahydropyrrolo[3,4-b][1,4]oxazine-6(2H)-sulfonamide]
5.30 to 6.30	6.00 to 8.00	NS(=O)(=O)N1CC2(CCCN(c3cc(-c4cnc5ccc(C(F)F)nn45)ncn3)C2)C1 [II-333, 6-(6-(6-(Difluoromethyl)imidazo[1,2-b]pyridazin-3-yl)pyrimidin-4-yl)-2,6-diazaspiro[3.5]nonane-2-sulfonamide]
5.30 to 6.30	6.00 to 8.00	NS(=O)(=O)N1CC2(CN(c3cc(-c4cnc5ccc(C(F)F)nn45)ncn3)CCO2)C1 [II-334, 8-(6-(6-(Difluoromethyl)imidazo[1,2-b]pyridazin-3-yl)pyrimidin-4-yl)-5-oxa-2,8-diazaspiro[3.5]nonane-2-sulfonamide]
< 5.30	6.00 to 8.00	NS(=O)(=O)N1CC2CCCN(c3cc(-c4cnc5ccc(C(F)F)nn45)ncn3)C2C1 (stereo not drawn) [II-335, 1-(6-(6-(Difluoromethyl)imidazo[1,2-b]pyridazin-3-yl)pyrimidin-4-yl)octahydro-6H-pyrrolo[3,4-b]pyridine-6-sulfonamide]
< 5.30	< 6.00	CC1NCCN(c2cc(-c3cnc4ccc(C(F)F)nn34)ncn2)C1CNS(C)(=O)=O (stereo not drawn) [II-336, N-((1-(6-(6-(Difluoromethyl)imidazo[1,2-b]pyridazin-3-yl)pyrimidin-4-yl)-3-methylpiperazin-2-yl)methyl)methanesulfonamide]
< 5.30	6.00 to 8.00	CC(O)c1ccc2ncc(-c3cc(N4C[C@@H](CNS(C)(=O)=O)C(F)(F)[C@@H](C)C4)ncn3)n2n1 (stereo partly drawn) [II-337, N-(((3S,5S)-4,4-Difluoro-1-(6-(6-(1-hydroxyethyl)imidazo[1,2-b]pyridazin-3-yl)pyrimidin-4-yl)-5-methylpiperidin-3-yl)methyl)methanesulfonamide]
< 5.30	6.00 to 8.00	CC(O)c1ccc2ncc(-c3cc(N4CCO[C@H](CNS(C)(=O)=O)C4)ncn3)n2n1 (stereo partly drawn) [II-338, N-(((2S)-4-(6-(6-(1-Hydroxyethyl)imidazo[1,2-b]pyridazin-3-yl)pyrimidin-4-yl)morpholin-2-yl)methyl)methanesulfonamide trifluoroacetate]
5.30 to 6.30	6.00 to 8.00	FC(F)c1ccc2ncc(-c3cc(N4CCCC(Cn5cncn5)C4)ncn3)n2n1 (stereo not drawn) [II-339, 3-(6-(3-((1H-1,2,4-Triazol-1-yl)methyl)piperidin-1-yl)pyrimidin-4-yl)-6-(difluoromethyl)imidazo[1,2-b]pyridazine]
> 6.30	6.00 to 8.00	CCN1CCN(c2cc(-c3cnc4ccc(C(F)F)nn34)ncn2)C(C)C1CNS(C)(=O)=O (stereo not drawn) [II-340, N-((4-(6-(6-(Difluoromethyl)imidazo[1,2-b]pyridazin-3-yl)pyrimidin-4-yl)-1-ethyl-3-methylpiperazin-2-yl)methyl)methanesulfonamide]
< 5.30	6.00 to 8.00	CC1C(CO)OCCN1c1cc(-c2cnc3ccc(C(F)F)nn23)ncn1 (stereo not drawn) [II-341, (4-(6-(6-(Difluoromethyl)imidazo[1,2-b]pyridazin-3-yl)pyrimidin-4-yl)-3-methylmorpholin-2-yl)methanol]
5.30 to 6.30	6.00 to 8.00	CC1C(CO)OCCN1c1cc(-c2cnc3ccc(C(F)F)nn23)ncn1 (stereo not drawn) [II-342, (4-(6-(6-(Difluoromethyl)imidazo[1,2-b]pyridazin-3-yl)pyrimidin-4-yl)-3-methylmorpholin-2-yl)methanol]
< 5.30	6.00 to 8.00	OCC1CN(c2cc(-c3cnc4ccc(C(F)F)nn34)ncn2)CC2(COC2)O1 (stereo not drawn) [II-343, (8-(6-(6-(Difluoromethyl)imidazo[1,2-b]pyridazin-3-yl)pyrimidin-4-yl)-2,5-dioxa-8-azaspiro[3.5]nonan-6-yl)methanol]
> 6.30	> 8.00	NS(=O)(=O)N1CCC2CCN(c3cc(-c4cnc5ccc(C(F)F)nn45)ncn3)C2C1 (stereo not drawn) [II-344, 1-(6-(6-(Difluoromethyl)imidazo[1,2-b]pyridazin-3-yl)pyrimidin-4-yl)octahydro-6H-pyrrolo[2,3-c]pyridine-6-sulfonamide]
> 6.30	> 8.00	CC1C(CNS(C)(=O)=O)OCCN1c1cc(-c2cnc3ccc(C(F)F)nn23)ncn1 (stereo not drawn) [II-345, N-((4-(6-(6-(Difluoromethyl)imidazo[1,2-b]pyridazin-3-yl)pyrimidin-4-yl)-3-methylmorpholin-2-yl)methyl)methanesulfonamide]
< 5.30	6.00 to 8.00	CC1C(CNS(C)(=O)=O)OCCN1c1cc(-c2cnc3ccc(C(F)F)nn23)ncn1 (stereo not drawn) [II-346, N-((4-(6-(6-(Difluoromethyl)imidazo[1,2-b]pyridazin-3-yl)pyrimidin-4-yl)-3-methylmorpholin-2-yl)methyl)methanesulfonamide]
> 6.30	> 8.00	NS(=O)(=O)NCC1CN(c2cc(-c3cnc4ccc(C(F)F)nn34)ncn2)CCO1 (stereo not drawn) [II-347, N-((4-(6-(6-(Difluoromethyl)imidazo[1,2-b]pyridazin-3-yl)pyrimidin-4-yl)morpholin-2-yl)methyl)sulfuric diamide]
5.30 to 6.30	6.00 to 8.00	CN(C)S(=O)(=O)NCC1CCCN(c2cc(-c3cnc4ccc(C(F)F)nn34)ncn2)C1 (stereo not drawn) [II-348, 3-((1-(6-(6-(Difluoromethyl)imidazo[1,2-b]pyridazin-3-yl)pyrimidin-4-yl)piperidin-3-yl)methyl)-1,1-dimethylsulfuric Diamide]
5.30 to 6.30	6.00 to 8.00	CN(C)S(=O)(=O)NCC1CN(c2cc(-c3cnc4ccc(C(F)F)nn34)ncn2)CCO1 (stereo not drawn) [II-349, 3-((4-(6-(6-(Difluoromethyl)imidazo[1,2-b]pyridazin-3-yl)pyrimidin-4-yl)morpholin-2-yl)methyl)-1,1-dimethyl sulfuric diamide]
< 5.30	6.00 to 8.00	OC1CCN(CCC2CCN(c3cc(-c4cnc5ccc(C(F)F)nn45)ncn3)CC2)C1 (stereo not drawn) [II-351, 1-(2-(1-(6-(6-(Difluoromethyl)imidazo[1,2-b]pyridazin-3-yl)pyrimidin-4-yl)piperidin-4-yl)ethyl)pyrrolidin-3-ol]
< 5.30	6.00 to 8.00	OC1CCN(C2CCN(c3cc(-c4cnc5ccc(C(F)F)nn45)ncn3)C2)C1 (stereo not drawn) [II-352, 1′-(6-(6-(Difluoromethyl)imidazo[1,2-b]pyridazin-3-yl)pyrimidin-4-yl)-[1,3′-bipyrrolidin]-3-ol]
< 5.30	6.00 to 8.00	O=C1CN(CC2CCN(c3cc(-c4cnc5ccc(C(F)F)nn45)ncn3)C2)CCN1 (stereo not drawn) [II-353, 4-((1-(6-(6-(Difluoromethyl)imidazo[1,2-b]pyridazin-3-yl)pyrimidin-4-yl)pyrrolidin-3-yl)methyl)piperazin-2-one]
< 5.30	6.00 to 8.00	C[C@@H]1CCCCN1c1cc(-c2cnc3ccc(C(F)F)nn23)ncn1 [II-354, (R)-6-(Difluoromethyl)-3-(6-(2-methylpiperidin-1-yl)pyrimidin-4-yl)imidazo[1,2-b]pyridazine]
